Here are results for three substances from patent publication US8993514B1 (The Florida State University Research Foundation, Inc., priority 2011, dated 2015).

Values joined by “and” are separate entries in the source; they are usually repeats but may differ in a detail not shown here. Equal entries are not always repeated. Where two headings read alike, the source gives them in different places.

The format of data set [1] is binding. The note with it: 1% DMSO.
The format of data set [2] is binding. Particulars: for hemin binding indicated by decrease of fluorescence intensity as hemin is added: pH 7.4; for estimated number of hemin molecules bound to the respective peptide: 25° C.
The subject of data set [3] is brain edema after traumatic brain injury. Particulars: in vivo, 8 mg/kg.
In data set [4] the test system is cultured neurons and astrocytes. Particulars: cited from earlier work.

As to “GQPHGGGWGQPHGGGWGQPHGGGWGQPHGGGWGQGGG (Synthetically generated peptide) [SEQ ID NO: 6, 4-repeat peptide of the octarepeat region with additional flanking residues]”, the “hemin binding indicated by SPR response increasing with hemin concentration” value in data set [1] is “hemin binds to the respective peptide”. In data set [2], the “hemin binding indicated by decrease of fluorescence intensity as hemin is added” value is given as “hemin forms a chemical bond”. Further, the “estimated number of hemin molecules bound to the respective peptide” value is recorded as 4.0 in data set [2] (pH = 5.0) and 2.0 in data set [2] (pH = 7.4).

With PHGGGWGQPHGGGWGQ [SEQ ID NO: 3], the “% water content of brain tissue from impacted region, individual rat” value in data set [3] is 80.93% and 77.24% and 80.98%. Further, in data set [3] (rat), the “% water content of brain tissue from impacted region, average” value is 79.72% and the “effect on brain swelling” value is recorded as “reduced the brain swelling”. In addition, the “hemin binding indicated by decrease of fluorescence intensity as hemin is added” value in data set [2] is “hemin forms a chemical bond”.

Turning to hemin, the “hemin concentration sufficient to kill 60%-70% of cultured neurons and astrocytes” value in data set [4] was 3 to 30 µM.
